# Test results published in patent US20070292906A1, “ASSAY FOR MEASURING ACYLTRANSFERASE ACTIVITY” (Bristol-Myers Squibb Company, priority 2006, published 2007).
# How the values were obtained:
# [1] = molecular target: T1, human MGAT3 (Homo sapiens, UniProt Q86VF5); test: substrate concentration titration in TLC assay, MGAT3; assay type: biochemical; conditions: Michaelis Menton fit, duplicate
# T1 construct: made in house; host or cells: Sf9 insect cells (baculovirus), used as membrane extracts
# T1 sequence (Q86VF5 1-341): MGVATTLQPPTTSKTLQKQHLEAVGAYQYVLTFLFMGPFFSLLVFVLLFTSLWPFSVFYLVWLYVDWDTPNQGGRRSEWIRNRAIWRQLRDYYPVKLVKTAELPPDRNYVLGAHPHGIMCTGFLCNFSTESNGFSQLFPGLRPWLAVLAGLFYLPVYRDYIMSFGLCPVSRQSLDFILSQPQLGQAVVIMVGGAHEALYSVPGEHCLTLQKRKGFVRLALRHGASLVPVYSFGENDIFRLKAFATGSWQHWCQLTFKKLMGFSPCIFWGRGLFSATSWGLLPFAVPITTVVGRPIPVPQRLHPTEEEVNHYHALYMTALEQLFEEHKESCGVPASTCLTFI
# Protocol: (§1) The data shown in FIG. 1B correspond to a TLC plate assay and various substrates that could be used in the assay. Aliquots of membrane extracts (30 μg) derived from either wild type baculovirus infected Sf9 cells (WT) (lanes 4,5) infected with recombinant human DGAT1 baculovirus (DGAT1) (lanes 6-8), or with recombinant human MGAT3 baculovirus (MGAT3) (lanes 1-3), were subjected to enzyme reactions in Buffer A (150 mM potassium phosphate buffer, pH 7.4) with 50 μM [^14C]oleoyl-CoA (40,000 d.p.m./nmol specific activity) as the acyl donor, and 100 μM 1,2-dioleoylglycerol (DOG), or 2-monooleoylglycerol (2-MOG) as the acyl acceptor (delivered by acetone, final vehicle concentration at 2%).
# (§2) Assays were carried out for 10 minutes as described in (Cheng et al., Biochem J. 2001 Nov. 1;359 (Pt 3):707-14.). The products were resolved by TLC in a solvent comprising hexane: ether: acetic acid in a ration of 170:30:1, respectively. The products were visualized by a Phosphoimage exposure. […]
# (§3) Briefly, substrate efficiency was determined from results obtained using a TLC acyltransferase assay. […] The enzymatic products were quantified and the kinetic parameters Vmax and Km were derived using the Michaelis Menton Equation as applied by Prism® software. […]
# [2] = molecular target: T2, human DGAT1 (Homo sapiens, UniProt O75907); test: substrate concentration titration in TLC assay, DGAT1; assay type: biochemical; conditions: Michaelis Menton fit, duplicate
# T2 construct: made in house; host or cells: Sf9 insect cells (baculovirus), used as membrane extracts
# T2 sequence (O75907 1-488): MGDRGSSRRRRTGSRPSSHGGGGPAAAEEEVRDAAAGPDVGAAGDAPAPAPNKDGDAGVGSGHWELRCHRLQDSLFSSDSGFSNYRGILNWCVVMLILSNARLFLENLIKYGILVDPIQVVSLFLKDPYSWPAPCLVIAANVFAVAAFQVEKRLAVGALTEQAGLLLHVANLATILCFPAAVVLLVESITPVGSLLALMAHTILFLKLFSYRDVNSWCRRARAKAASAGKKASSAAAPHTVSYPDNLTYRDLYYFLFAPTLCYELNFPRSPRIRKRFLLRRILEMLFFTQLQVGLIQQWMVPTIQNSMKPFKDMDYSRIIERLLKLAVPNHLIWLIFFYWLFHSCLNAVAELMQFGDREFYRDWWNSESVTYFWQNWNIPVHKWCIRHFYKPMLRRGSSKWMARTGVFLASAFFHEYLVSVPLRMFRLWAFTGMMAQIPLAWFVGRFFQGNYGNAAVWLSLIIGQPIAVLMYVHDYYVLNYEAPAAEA
# Protocol: as §1, §2, §3
smiles,measurement,setting,value
"CCCCCCCC/C=C\CCCCCCCC(=O)OC(CO)CO [MOG, 2-monooleoylglycerol]","Km with MOG relative to 1,2-sn-dioleoylglycerol",[1],significantly reduced
same,"Vmax with MOG relative to 1,2-sn-dioleoylglycerol",[1],more than 50 fold
same,"Km with MOG relative to 1,2-sn-dioleoylglycerol",[2],significantly reduced
same,"Vmax with MOG relative to 1,2-sn-dioleoylglycerol",[2],more than 20 fold
